Results as given in PubChem BioAssay AID330 (DTP/NCI, 2004).
“And” between values parts separate entries of the source, which are not always exact repeats. Equal values may be shown once. Inconclusive results and toxic doses are left out. Rule for the calls: active = survival T/C of 150% or more; inactive = T/C below 125% in these data. Peptide text beside a SMILES is read from it.

System: P388 leukemia ip, CD2F1 mice, survival T/C
Assay: NCI In Vivo Anticancer Drug Screen. Data for tumor model P388 Leukemia (intraperitoneal) in CD2F1 (CDF1) mice
Settings: endpoint: median survival time, higher = longer survival
Procedure, shortened: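 Mice carrying the transplanted tumor received test compound or vehicle. Survival was recorded in each group, and the value is the treated-group measurement divided by that of the vehicle-treated control group.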

[1] = dose: 50.0 mg/kg/injection, schedule: Q01DX005 (ip), vehicle: Klucel (hydroxypropylcellulose) (HPC)
[2] = dose: 100.0 mg/kg/injection, schedule: Q01DX001 (ip), vehicle: saline with Tween-80
[3] = dose: 50.0 mg/kg/injection, schedule: Q01DX005 (ip), vehicle: saline with Tween-80
[4] = dose: 100.0 mg/kg/injection, schedule: Q01DX001 (ip), vehicle: Klucel (hydroxypropylcellulose) (HPC)
[5] = dose: 200.0 mg/kg/injection, schedule: Q01DX001 (ip), vehicle: Klucel (hydroxypropylcellulose) (HPC)
[6] = dose: 400.0 mg/kg/injection, schedule: Q01DX001 (ip), vehicle: Klucel (hydroxypropylcellulose) (HPC)
[7] = dose: 100.0 mg/kg/injection, schedule: Q01DX005 (ip), vehicle: saline with Tween-80
[8] = dose: 200.0 mg/kg/injection, schedule: Q01DX005 (ip), vehicle: saline with Tween-80
[9] = dose: 100.0 mg/kg/injection, schedule: Q01DX005 (ip), vehicle: Klucel (hydroxypropylcellulose) (HPC)
[10] = dose: 50.0 mg/kg/injection, schedule: Q01DX009 (ip), vehicle: Klucel (hydroxypropylcellulose) (HPC)
[11] = dose: 100.0 mg/kg/injection, schedule: Q01DX009 (ip), vehicle: Klucel (hydroxypropylcellulose) (HPC)
[12] = dose: 200.0 mg/kg/injection, schedule: Q01DX009 (ip), vehicle: Klucel (hydroxypropylcellulose) (HPC)
[13] = dose: 12.5 mg/kg/injection, schedule: Q04DX003 (ip), vehicle: saline with Tween-80
[14] = dose: 25.0 mg/kg/injection, schedule: Q04DX003 (ip), vehicle: saline with Tween-80
[15] = dose: 50.0 mg/kg/injection, schedule: Q04DX003 (ip), vehicle: saline with Tween-80
[16] = dose: 50.0 mg/kg/injection, schedule: Q01DX009 (ip), vehicle: saline with Tween-80
[17] = dose: 100.0 mg/kg/injection, schedule: Q01DX009 (ip), vehicle: saline with Tween-80
[18] = dose: 200.0 mg/kg/injection, schedule: Q01DX009 (ip), vehicle: saline with Tween-80
[19] = dose: 15.0 mg/kg/injection, schedule: Q01DX009 (ip), vehicle: saline with Tween-80
[20] = dose: 30.0 mg/kg/injection, schedule: Q01DX009 (ip), vehicle: saline with Tween-80

Measured: T/C

CN(C)C(C#CCO)c1ccccc1 (stereo not drawn)
inactive: dose: 60.0 mg/kg/injection, schedule: Q01DX005 (ip), vehicle: saline 100 % of control | dose: 120.0 mg/kg/injection, schedule: Q01DX005 (ip), vehicle: saline 103 % of control | dose: 240.0 mg/kg/injection, schedule: Q01DX005 (ip), vehicle: saline 101 % of control

N#CC1C2C1C1C=CC2n2c(=O)n(-c3ccccc3)c(=O)n21 (stereo not drawn)
inactive: dose: 6.25 mg/kg/injection, schedule: Q01DX005 (ip), vehicle: Klucel (hydroxypropylcellulose) (HPC) 99 % of control | dose: 12.5 mg/kg/injection, schedule: Q01DX005 (ip), vehicle: Klucel (hydroxypropylcellulose) (HPC) 102 % of control | dose: 25.0 mg/kg/injection, schedule: Q01DX005 (ip), vehicle: Klucel (hydroxypropylcellulose) (HPC) 108 % of control and 98 % of control | [1] 99 % of control and 111 % of control

C/C=C/c1cccc(OC)c1OC
inactive: [2] 108 % of control | dose: 200.0 mg/kg/injection, schedule: Q01DX001 (ip), vehicle: saline with Tween-80 120 % of control | dose: 400.0 mg/kg/injection, schedule: Q01DX001 (ip), vehicle: saline with Tween-80 110 % of control

Nc1c2c(=O)[nH]c(O)cc2nn1-c1ccccc1
inactive: dose: 12.5 mg/kg/injection, schedule: Q01DX005 (ip), vehicle: saline with Tween-80 100 % of control | dose: 25.0 mg/kg/injection, schedule: Q01DX005 (ip), vehicle: saline with Tween-80 96 % of control | [3] 100 % of control and 97 % of control

O=Cc1c(-c2ccc(Cl)cc2)nc2sccn12
inactive: [4] 93 % of control | [5] 96 % of control | [6] 93 % of control

CCOC(=O)C(CC(C)C)NC(=O)c1cnc2ccccc2c1 (stereo not drawn)
inactive: dose: 60.0 mg/kg/injection, schedule: Q01DX005 (ip), vehicle: saline with Tween-80 104 % of control | dose: 120.0 mg/kg/injection, schedule: Q01DX005 (ip), vehicle: saline with Tween-80 103 % of control | dose: 240.0 mg/kg/injection, schedule: Q01DX005 (ip), vehicle: saline with Tween-80 99 % of control

CC1CC(C)(C)CC2(C1)OCC(CCl)O2 (stereo not drawn)
inactive: dose: 25.0 mg/kg/injection, schedule: Q01DX001 (ip), vehicle: saline with Tween-80 109 % of control | dose: 50.0 mg/kg/injection, schedule: Q01DX001 (ip), vehicle: saline with Tween-80 104 % of control | [2] 109 % of control

O=C(O)CCCCCCCCCCCCCCC1C=CCC1 (stereo not drawn)
inactive: dose: 100.0 mg/kg/injection, schedule: Q01DX001 (ip), vehicle: saline 101 % of control | dose: 200.0 mg/kg/injection, schedule: Q01DX001 (ip), vehicle: saline 100 % of control | dose: 400.0 mg/kg/injection, schedule: Q01DX001 (ip), vehicle: saline 98 % of control

Cn1nnnc1NNc1nnnn1C
inactive: [3] 99 % of control | [7] 99 % of control | [8] 99 % of control

CC(=O)NC(Cc1ccccc1)C(=O)NC(Cc1ccccc1)C(=O)O (stereo not drawn) (Ac-Phe-Phe-OH; configuration not given here)
inactive: [3] 107 % of control | [7] 103 % of control | [8] 94 % of control

CSc1nc(N)c(NS(=O)(=O)c2cccc([N+](=O)[O-])c2)c(=O)[nH]1
inactive: dose: 60.0 mg/kg/injection, schedule: Q01DX005 (ip), vehicle: Klucel (hydroxypropylcellulose) (HPC) 92 % of control | dose: 120.0 mg/kg/injection, schedule: Q01DX005 (ip), vehicle: Klucel (hydroxypropylcellulose) (HPC) 94 % of control | dose: 240.0 mg/kg/injection, schedule: Q01DX005 (ip), vehicle: Klucel (hydroxypropylcellulose) (HPC) 88 % of control

CCCCN(CCCC)CCCC(C(C)=O)C(=O)OCC (stereo not drawn)
inactive: [1] 102 % of control | [9] 104 % of control

Cc1ccc(C2C(C#N)C(=O)NC(=O)C2C#N)cc1 (stereo not drawn)
inactive: [10] 100 % of control | [11] 108 % of control | [12] 99 % of control

COc1ccc(Oc2cc3c[n+](C)ccc3cc2OC)cc1
inactive: dose: 12.5 mg/kg/injection, schedule: Q01DX009 (ip), vehicle: saline 111 % of control | dose: 25.0 mg/kg/injection, schedule: Q01DX009 (ip), vehicle: saline 117 % of control

c1ccc2sc(SCSc3nc4ccccc4s3)nc2c1
inactive: [10] 111 % of control | [11] 112 % of control | [12] 114 % of control | dose: 400.0 mg/kg/injection, schedule: Q01DX009 (ip), vehicle: Klucel (hydroxypropylcellulose) (HPC) 117 % of control

Cc1cc2c(=O)[nH]cnc2n1C1C(O)CCCC1O (stereo not drawn)
inactive: [1] 106 % of control | [9] 104 % of control | dose: 200.0 mg/kg/injection, schedule: Q01DX005 (ip), vehicle: Klucel (hydroxypropylcellulose) (HPC) 107 % of control

CC(C)(C)c1cc(/C=C2/OC(=O)c3ccccc32)cc(C(C)(C)C)c1O
inactive: dose: 100.0 mg/kg/injection, schedule: Q04DX002 (ip), vehicle: saline 99 % of control | dose: 200.0 mg/kg/injection, schedule: Q04DX002 (ip), vehicle: saline 100 % of control | dose: 400.0 mg/kg/injection, schedule: Q04DX002 (ip), vehicle: saline 96 % of control

CC(CC(=O)c1ccccc1)=NCC(O)CN=C(C)CC(=O)c1ccccc1.[Cu] (stereo not drawn)
inactive: [13] 96 % of control | [14] 93 % of control | [15] 96 % of control | dose: 100.0 mg/kg/injection, schedule: Q04DX003 (ip), vehicle: saline with Tween-80 94 % of control and 98 % of control | dose: 200.0 mg/kg/injection, schedule: Q04DX003 (ip), vehicle: saline with Tween-80 101 % of control and 92 % of control | dose: 400.0 mg/kg/injection, schedule: Q04DX003 (ip), vehicle: saline with Tween-80 96 % of control

O=C(CC(=O)C(F)(F)F)c1csc2ccccc12
inactive: dose: 12.5 mg/kg/injection, schedule: Q01DX009 (ip), vehicle: saline with Tween-80 95 % of control | [13] 100 % of control | dose: 25.0 mg/kg/injection, schedule: Q01DX009 (ip), vehicle: saline with Tween-80 100 % of control | [14] 100 % of control | [16] 109 % of control | [15] 109 % of control

CC(C)NC1CC2CCCCC2CC1c1ccccc1 (stereo not drawn)
inactive: [4] 93 % of control | [5] 93 % of control | [6] 88 % of control

C=CC1CC(NC(=O)OCCCC)C(=O)O1 (stereo not drawn)
inactive: [3] 99 % of control | [7] 101 % of control | [8] 102 % of control

CC(=O)NCc1cc(C)c(CCl)cc1CCl
inactive: dose: 3.13 mg/kg/injection, schedule: Q01DX009 (ip), vehicle: distilled water + Tween-80 103 % of control | dose: 6.25 mg/kg/injection, schedule: Q01DX009 (ip), vehicle: distilled water + Tween-80 114 % of control and 117 % of control | dose: 12.5 mg/kg/injection, schedule: Q01DX009 (ip), vehicle: distilled water + Tween-80 122 % of control and 123 % of control | dose: 25.0 mg/kg/injection, schedule: Q01DX009 (ip), vehicle: distilled water + Tween-80 116 % of control

C1CCNCC1.CC(=O)[CH-]C(=O)c1ccccc1.CC(=O)[CH-]C(=O)c1ccccc1.CC(=O)[CH-]C(=O)c1ccccc1.CC(=O)[CH-]C(=O)c1ccccc1.[Eu+3]
inactive: [11] 98 % of control

CCCCOC(=O)N(C)SN(C)C(=O)Oc1cccc(C(C)C)c1
inactive: [16] 121 % of control

CCCCN(C(=O)N(CC)CC)[Si](C)(C)C
inactive: [10] 107 % of control | [11] 100 % of control | [12] 107 % of control

CC1CC(Nc2ccc(NC3=CC(=O)OC(C)C3)cc2)=CC(=O)O1 (stereo not drawn)
inactive: [3] 94 % of control | [7] 92 % of control | [8] 90 % of control

O=C(NC(=O)C(F)(F)C(F)(F)C(F)(F)F)Nc1cccc(F)c1
inactive: [16] 100 % of control | [17] 100 % of control | [18] 100 % of control

CCCCCCCCCCCCCCCc1ccc(OC)cc1
inactive: dose: 7.5 mg/kg/injection, schedule: Q01DX009 (ip), vehicle: saline with Tween-80 90 % of control | [19] 94 % of control | [20] 104 % of control

CCCCCCCOCC(=O)OC
inactive: [16] 109 % of control | [17] 108 % of control | [18] 101 % of control

O=CNc1c(Nc2ccccc2)nc(-c2ccccc2)[nH]c1=O
inactive: [19] 105 % of control | [20] 91 % of control | dose: 60.0 mg/kg/injection, schedule: Q01DX009 (ip), vehicle: saline with Tween-80 91 % of control
